Experimental data taken from publication PMC8624133, “10th Trends in Medical Mycology Held on 8 to 11 October 2021, Aberdeen, Scotland, Organized by the European Confederation of Medical Mycology (ECMM)” (Journal of Fungi, 2021).
Converted amounts (≈) assume the structure as drawn. Like-named read-outs stand apart in the source and are kept apart here.

Key:
[1] = tested on: Cryptococcus bacillisporus (AFLP5/VGIII); assay: Treatment of a grey parrot with cryptococcosis; format: in vivo, grey parrot (Psittacus erithacus); details: in drinking water, 600 mg per litre, after 6 months
Description: Phenotypic and molecular analysis of the isolated yeast allowed the identification of Cryptococcus bacillisporus (AFLP5/VGIII) as the cause of the infection.

[2] = tested on: sessile cells of yeast mono and dual-species biofilms; assay: MIC of catheter yeast isolates, mono and dual-species biofilms; format: cell-based; details: range
[3] = tested on: C. auris; assay: EUCAST EDef 7.3.1 MIC and checkerboard microdilution; format: cell-based, Candida auris
Procedure: Methods: We studied 22 C. auris isolates obtained from different clinical samples from the Hospital La Fe, Valencia, Spain (eight from blood culture, seven from oropharynx and seven from urine cultures). Candida parapsilosis ATCC 22019 and Candida krusei ATCC 6258 were used as quality controls. The minimum inhibitory concentration (MIC) was determined according to the European Committee on Antibiotic Susceptibility Testing (EUCAST) EDef 7.3.1 document. The interaction between citral and the rest of antifungal drugs was assessed by a checkerboard microdilution method. […] The in vitro interaction of the drug combinations was interpreted in terms of the fractional inhibitory concentration index (FICI) as follows: FICI < 1, synergistic; FICI equal to 1, additive; and FICI > 1, indifferent or antagonistic.

[4] = tested on: C. auris isolates; assay: AmB Etest; format: cell-based, Candida auris; details: for MIC: Candidozyma auris
Procedure: Methods: A total of 313 C. auris isolates representing five geographic clades (I—South Asian; II—East Asian; III—South African; IV—South American; V—Iranian) were investigated in this study. Antifungal susceptibility testing (AFST) with AmB was performed with Etest according to the manufacturer instructions. […] Ergosterol biosynthesis pathway genes ERG2 (C-8 sterol isomerase), ERG3 (C-5 sterol desaturase), ERG6 (sterol 24-C-methyltransferase), and ERG11 (lanosterol 14-α-demethylase) were amplified and sequenced. […] AmB susceptibility was then determined for the transformed strain.

[5] = tested on: Candida sp.; format: cell-based
[6] = tested on: Cryptococcus neoformans var grubii; assay: microbe, parasite or virus in culture; format: cell-based; details: read-out: Minimal Inhibitory Concentration (MIC)
[7] = tested on: C. albicans; assay: […] candidemia survey, susceptibility according to CLSI; format: cell-based, Candida albicans
[8] = tested on: Candida non-albicans; assay: In vitro fluconazole susceptibility, neonatal invasive candidiasis; format: cell-based
[9] = tested on: CgCDR1, CgCDR2 and CgSNQ2 genes; assay: Real-time PCR of ATP-binding cassette transporter genes; format: cell-based, Candida glabrata
[10] = tested on: Candida auris isolates; assay: Disc diffusion, Oxoid discs; format: cell-based; details: 25 µg FLU and 5 µg CAS discs; […]
[11] = tested on: environmental yeasts from a lagoon; assay: organism not typed; format: cell-based
[12] = tested on: clinical dermatophyte isolates; assay: Inhibition of dermatophyte biofilm formation; format: cell-based
Procedure: Materials and Methods: The study population consisted of 50 dermatophyte isolates that were collected from 2019 to 2020 from patients referred to the two mycology laboratory of Shiraz, Iran. The isolates were identified by ITS gene region sequencing. The suspension (equivalent to 0.5 McFarland) of the isolates was used to evaluate the ability of the isolates to form biofilms and also the effect of itraconazole, terbinafine and griseofulvin at concentrations of 2–32 μg/mL on inhibiting biofilm formation. Two optical microscope and a scanning electron microscope were used to study the microscopic structure of biofilms formed on the surface of 96-well plate wells.

[13] = tested on: eumycetoma; details: in vivo; cited from earlier work
Description: Mycetoma: Mycetoma is a chronic, progressive, implantation inflammatory disease characterised by severe and stigmatising deformities, disability, and high morbidity. The disease is caused by fungi (eumycetoma) and several Actinomycetales members (actinomycetoma). Its estimative global burden is 9000 cases. There are no robust epidemiological studies on mycetoma in SA, but it is tconsidered the third most prevalent endemic IM in SA, especially among low socioeconomic adult males living in rural areas from Argentina, Brazil, Colombia and Venezuela, where the principal agents are Madurella spp. a ...

[14] = tested on: yeasts; assay: CLSI M27-A3 MIC; format: cell-based
[15] = tested on: A. flavus complex; details: n = 6, EUCAST clinical breakpoints
[16] = tested on: Asp. niger; assay: Triazole resistance agar screening, four-well plate; details: RPMI agar, 1 µg/mL, 14 isolates
Procedure: All the isolates were identified phenotypically. […] Fungal spores were suspended in normal saline (0.85%) and adjusted to 0.5 McFarland and 50 μL was plated in each well. […] Plates were incubated at 35–37 °C for 72 h in ambient air. The presence or absence of growth was observed visually at 24 h, 48 h, and 72 h.

[17] = tested on: Aspergillus tubingensis; assay: EUCAST susceptibility; format: cell-based; details: read-out: MIC
Procedure: The fungus was identified as Aspergillus niger and liposomal amphotericine B was switched to anidulafungin pending susceptibility testing as the patient had pre-existing […] (eGFR CKD-EPI 40 mL/min/1.73 m²). […] Despite increasing the anidulafungin dosage to 200 mg daily and adequate voriconazol levels, serum galactomannan levels remained elevated (index 2.1 at discharge). […] Since no extracardiac sources were found and the patient did well clinically, they were discharched. Anidulafungin was switched to caspofungin to facilitate ongoing IV treatment in the outpatient setting. […] The patient died shortly after. Obduction was not performed.

[18] = Universal voriconazole prophylaxis in lung transplant recipients, retrospective; format: in vivo, human
Procedure: Materials & Methods: Retrospective study of all adult lung transplant recipients at Copenhagen University Hospital during 2010 to 2019. […] Failure to complete prophylaxis was defined as recieving <9 of the intented 12 weeks of prophylaxis. Liver and kidney toxicity was graded according to Common Terminology Criteria for Adverse Events (CTCAE) criteria (grades 0–4 according to degree of elevation). Grade ≥2 adverse events were classified as high. Lung biopsies were evaluated for acute rejection (grade ≥A2). Calcineurin-inhibitor (CNI) plasma-concentrations were evaluated for off-target episodes. High and low episodes were defined as ≥2 concecutive samples 20% above or below target range limits, respectively. […] Acute rejections were classified as related to low CNI if they occurred 0–30 days from low CNI. Grade ≥2 kidney toxicity was considered related to high CNI if it occurred between two days prior to high CNI to 7 days after.

C[C@@H]1[C@H](O)[C@@H](C)/C=C/C=C/C=C/C=C/C=C/C=C/C=C/[C@H](O[C@@H]2O[C@H](C)[C@@H](O)[C@H](N)[C@@H]2O)C[C@@H]2O[C@](O)(C[C@@H](O)C[C@@H](O)[C@H](O)CC[C@@H](O)C[C@@H](O)CC(=O)O[C@H]1C)C[C@H](O)[C@H]2C(=O)O [amphotericin B]
clinical response [1]: good response | MIC [2]: 0.25 to 8 µg/mL | MIC of amphotericin B in combination with citral [3]: 0.016 µg/mL | MIC ([3]; Candidozyma auris, 22 clinical isolates): 0.25 µg/mL | isolates with AmB MIC values ≥2 mg/L ([4]; 19 of 313 isolates): 6.1% | MIC ([4]; read-out: AmB MIC, South African isolate SA18, ERG6 missing base pairs 52–543): 6 µg/mL (≈ 6.49 µM) | MIC ([4]; read-out: AmB MIC, susceptible strain after replacement with ERG6 of SA18): > 32 µg/mL | MIC ([4]; read-out: AmB MIC, susceptible strain with wild-type ERG6): 0.5 µg/mL (≈ 0.541 µM)

OC(Cn1cncn1)(Cn1cncn1)c1ccc(F)cc1F [fluconazole]
Susceptibility to fluconazole (share of isolates) [5]; 2019: 66% | Susceptibility to fluconazole (share of isolates) ([5]; full 12 month period in 2020): 82% | Susceptibility to fluconazole (share of isolates) ([5]; overall, entire period reviewed): 74% | Susceptibility to fluconazole (share of isolates) ([5]; to date in January–April 2020): 100% | MIC [6]: > 32 µg/mL | non-susceptibility [7]: 1% | dose-dependent susceptible pathogens [8]: 6% | in vitro resistant pathogens [8]: 6% | expression of CgCDR1, CgCDR2 and CgSNQ2 genes [9]: over-expressed | median zone diameter (ZD) [10]: 0 mm | isolates classified as resistant-like ([11]; number of 71 yeasts, MIC at or above Candida breakpoint): Fifty-five | MIC ([11]; range, read-out: MIC of resistant-like isolates): 64 to 2050 µg/mL

CCC(C)n1ncn(-c2ccc(N3CCN(c4ccc(OCC5COC(Cn6cncn6)(c6ccc(Cl)cc6Cl)O5)cc4)CC3)cc2)c1=O (centres unmarked) [itraconazole]
IC50 ([12]; inhibition of biofilm formation, read-out: mean concentrations of IC50): 3.78 µg/mL (≈ 5.36 µM) | samples with IC50 in concentration <2 ([12]; tested at 2–32 μg/mL): 70% | Cure rate [13]: 25–35% | MIC ([14]; four sensitive isolates): 0.03 µg/mL (≈ 0.0425 µM) | MIC ([14]; the other isolates, drug resistance): 0.06 to 16 µg/mL (≈ 0.085 to 22.7 µM) | isolates resistant [15]: 17%

C[C@@H](c1ncncc1F)[C@](O)(Cn1cncn1)c1ccc(F)cc1F [voriconazole]
isolates with growth only in voriconazole well, n (%) ([16]; 48 h): 0 | isolates with growth only in voriconazole well, n (%) ([16]; 72 h): 2 (14.28) | MIC [17]: 1 µg/mL (≈ 2.86 µM) | low CNI plasma-concentration episode related to discontinuation of voriconazole ([18]; patients of the universal prophylaxis period): 45% | failed to complete prophylaxis ([18]; receiving <9 of the intended 12 weeks, 183 patients on voriconazole prophylaxis): 62% | failure to complete prophylaxis due to hepatic toxicity ([18]; share of the 114 patients who failed to complete): 72%
